Where two headings read alike, the source gives them in different places.

The record followed here is US12077503B2, “Substituted cyclic amides and their use as herbicides” (FMC CORPORATION, priority 2015, dated 2024).

Common to all, as to format: in vivo
In assay [1] the test system is ragweed (common ragweed, Ambrosia elatior). As to the kind of experiment: Test A preemergence. As to conditions: Ambrosia artemisiifolia, pre-emergence, 240 h; for pest or weed control at 125 g/ha: 125 g ai/ha; for pest or weed control at 500 g/ha: 500 g ai/ha. A digest of the protocol:
(§1)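 Preemergence directed soil spray on seeded pots, or postemergence application to plants 2–10 cm, one- to two-leaf. Solvent mixture non-phytotoxic, with surfactant. Scored ~10 d later, visually, 0–100 vs untreated.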

Assay [2] has as its system ryegrass, Italian (Italian ryegrass, Lolium multiflorum). Kind of assay: Test A preemergence. The note with it: Lolium multiflorum, pre-emergence, 240 h; for pest or weed control at 125 g/ha: 125 g ai/ha; for pest or weed control at 500 g/ha: 500 g ai/ha. The method, boiled down: as §1
Assay [3] relates to pigweed (Amaranthus retroflexus). As to the kind of experiment: Test A preemergence. The note with it: Amaranthus retroflexus, pre-emergence, 240 h; for pest or weed control at 125 g/ha: 125 g ai/ha; for pest or weed control at 500 g/ha: 500 g ai/ha.
For assay [4], the system named is giant foxtail (Setaria faberii). As to the kind of experiment: Test A preemergence. As to conditions: Setaria faberi, pre-emergence, 240 h; for pest or weed control at 125 g/ha: 125 g ai/ha; for pest or weed control at 500 g/ha: 500 g ai/ha. A digest of the protocol:
as §1

The subject of assay [5] is Kochia (Kochia scoparia). Kind of assay: Test A preemergence. The note with it: Bassia scoparia, pre-emergence, 240 h; for pest or weed control at 125 g/ha: 125 g ai/ha; for pest or weed control at 500 g/ha: 500 g ai/ha. The method, boiled down:
as §1

Assay [6] has as its system barnyardgrass (Echinochloa crus-galli). As to the kind of experiment: Test A preemergence. The note with it: Echinochloa crus-galli, pre-emergence, 240 h; for pest or weed control at 125 g/ha: 125 g ai/ha; for pest or weed control at 500 g/ha: 500 g ai/ha. The method, boiled down: as §1
Assay [7] has as its system ragweed (common ragweed, Ambrosia elatior). Kind of assay: Test A postemergence. As to conditions: Ambrosia artemisiifolia, post-emergence, 240 h; for pest or weed control at 125 g/ha: 125 g ai/ha. The method, boiled down: as §1
Assay [8] deals with corn (Zea mays). As to the kind of experiment: Test A postemergence. As to conditions: Zea mays, post-emergence, 240 h. The method, boiled down:
as §1

For assay [9], the system named is Galium (catchweed bedstraw, Galium aparine). As to the kind of experiment: Test A postemergence. The note with it: Galium, post-emergence, 240 h; for pest or weed control at 125 g/ha: 125 g ai/ha. The method, boiled down: as §1
In assay [10] the test system is barnyardgrass (Echinochloa crus-galli). Kind of assay: Test A postemergence. The note with it: Echinochloa crus-galli, post-emergence, 240 h; for pest or weed control at 125 g/ha: 125 g ai/ha. The method, boiled down:
as §1

Assay [11] has as its system rice (Oryra sativa). Kind of assay: Test B flooded paddy test. As to conditions: Oryza sativa, 250 g ai/ha, Flood, read-out: Rice plant response rating. A digest of the protocol:
(§2)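 Flooding to 3 cm over soil accompanied treatment, which consisted of adding compound to the standing water around 2-leaf plants; depth was then maintained. Visual assessment versus controls followed at 13 to 15 d (scale 0–100, 0 meaning no effect).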

Assay [12] relates to ducksalad (Heteranthera limosa). Kind of assay: Test B flooded paddy test. The note with it: Heteranthera limosa, 250 g ai/ha, Flood, read-out: Ducksalad plant response rating. A digest of the protocol:
as §2

Assay [13] relates to sedge, umbrella (small-flower umbrella sedge, Cyperus difformis). Kind of assay: Test B flooded paddy test. The note with it: Cyperus difformis, 250 g ai/ha, Flood, read-out: Sedge, Umbrella plant response rating. A digest of the protocol:
as §2

Assay [14] relates to barnyardgrass (Echinochloa crus-galli). Kind of assay: Test B flooded paddy test. As to conditions: Echinochloa crus-galli, 250 g ai/ha, Flood, read-out: Barnyardgrass plant response rating. The method, boiled down:
as §2

Where [15] appears, read: 0 to 100 scale where 0 is no effect and 100 is complete control.
Setting [16] is: scale of 0 to 100 where 0 is no effect and 100 is complete control.

As to `CSc1ccccc1NC(=O)[C@H]1C(=O)NC[C@@H]1c1cc(F)c(F)c(F)c1` [Compound 1124], the pest or weed control at 125 g/ha in assay [1] (preemergence, 0 to 100 scale where 0 is no effect and 100 is complete control, approx. 10 d, read-out: Ragweed plant response rating) stood at 0%; in assay [2] (preemergence, 0 to 100 scale where 0 is no effect and 100 is complete control, approx. 10 d, read-out: Ryegrass, Italian plant response rating) it was 0%; in [3] (preemergence, 0 to 100 scale where 0 is no effect and 100 is complete control, approx. 10 d, read-out: Pigweed plant response rating) it was 50%; in [4] (preemergence, 0 to 100 scale where 0 is no effect and 100 is complete control, approx. 10 d, read-out: Foxtail, Giant plant response rating), 90%; in assay [5] (preemergence, 0 to 100 scale where 0 is no effect and 100 is complete control, approx. 10 d, read-out: Kochia plant response rating), 70%; in [6] (preemergence, 0 to 100 scale where 0 is no effect and 100 is complete control, approx. 10 d, read-out: Barnyardgrass plant response rating) it was 60%. Also, the pest or weed control at 125 g/ha in assay [7] (postemergence, visual injury on 0 to 100 scale (0 no effect, 100 complete control), approx. 10 d, read-out: Ragweed plant response rating) was determined as 0%; in assay [9] (postemergence, visual injury on 0 to 100 scale (0 no effect, 100 complete control), approx. 10 d, read-out: Galium plant response rating) it was 50%; in assay [10] (postemergence, visual injury on 0 to 100 scale (0 no effect, 100 complete control), approx. 10 d, read-out: Barnyardgrass plant response rating) it was 60%. Further, the pest or weed control at 500 g/ha is 60% in assay [1] (preemergence, 0 to 100 scale where 0 is no effect and 100 is complete control, read-out: Ragweed plant response rating); 30% in assay [2] (preemergence, 0 to 100 scale where 0 is no effect and 100 is complete control, read-out: Ryegrass, Italian plant response rating); 70% in assay [3] (preemergence, 0 to 100 scale where 0 is no effect and 100 is complete control, read-out: Pigweed plant response rating); 90% in assay [4] (preemergence, 0 to 100 scale where 0 is no effect and 100 is complete control, read-out: Foxtail, Giant plant response rating); 90% in assay [5] (preemergence, 0 to 100 scale where 0 is no effect and 100 is complete control, read-out: Kochia plant response rating); 90% in assay [6] (preemergence, 0 to 100 scale where 0 is no effect and 100 is complete control, read-out: Barnyardgrass plant response rating). Moreover, the pest or weed control at 500 g/ha in [7] (500 g ai/ha, postemergence, 0 to 100 scale, 0 is no effect, 100 is complete control, read-out: Ragweed plant response rating) is 50%; in [9] (500 g ai/ha, postemergence, 0 to 100 scale, 0 is no effect, 100 is complete control, read-out: Galium plant response rating) it was 60%; in assay [10] (500 g ai/ha, postemergence, 0 to 100 scale, 0 is no effect, 100 is complete control, read-out: Barnyardgrass plant response rating) it was 90%. The plant injury at 125 g/ha in [8] (125 g ai/ha, postemergence, visual injury on 0 to 100 scale (0 no effect, 100 complete control), approx. 10 d, read-out: Corn plant response rating) worked out at 0%. Besides, the plant injury at 500 g/ha in assay [8] (500 g ai/ha, postemergence, 0 to 100 scale, 0 is no effect, 100 is complete control, read-out: Corn plant response rating) worked out at 0%. In addition, the pest or weed control at 250 g/ha turned out to be 0% in [11] (setting [15]), 95% in assay [12] (setting [15]), 0% in assay [13] (setting [15]) and 0% in assay [14] (setting [15]).
For `CN1C[C@H](c2csc(C(F)(F)F)c2)[C@@H](C(=O)Nc2cccc(F)c2F)C1=O` [Compound 959], the pest or weed control at 125 g/ha in [1] (Preemergence, visual injury rating after approximately 10 d, read-out: Ragweed plant response rating (0 to 100 scale, 0 is no effect, 100 is complete control)) was 70%; in assay [2] (Preemergence, visual injury rating after approximately 10 d, read-out: Ryegrass, Italian plant response rating (0 to 100 scale, 0 is no effect, 100 is complete control)), 20%; in assay [3] (Preemergence, visual injury rating after approximately 10 d, read-out: Pigweed plant response rating (0 to 100 scale, 0 is no effect, 100 is complete control)), 0%; in assay [4] (Preemergence, visual injury rating after approximately 10 d, read-out: Foxtail, Giant plant response rating (0 to 100 scale, 0 is no effect, 100 is complete control)), 90%; in assay [5] (Preemergence, visual injury rating after approximately 10 d, read-out: Kochia plant response rating (0 to 100 scale, 0 is no effect, 100 is complete control)) it was 70%; in assay [6] (Preemergence, visual injury rating after approximately 10 d, read-out: Barnyardgrass plant response rating (0 to 100 scale, 0 is no effect, 100 is complete control)), 90%. In addition, the pest or weed control at 125 g/ha in [7] (Postemergence, visual injury after approximately 10 d, 0 to 100 scale where 0 is no effect and 100 is complete control, read-out: Plant response rating, Ragweed) turned out to be 0%; in assay [9] (Postemergence, visual injury after approximately 10 d, 0 to 100 scale where 0 is no effect and 100 is complete control, read-out: Plant response rating, Galium), 40%; in assay [10] (Postemergence, visual injury after approximately 10 d, 0 to 100 scale where 0 is no effect and 100 is complete control, read-out: Plant response rating, Barnyardgrass) it was 90%. For the same molecule, the pest or weed control at 500 g/ha in [1] (preemergence, visual injury rating about 10 d after treatment, 0 to 100 scale (0 no effect, 100 complete control), read-out: Ragweed plant response rating) came to 70%; in [2] (preemergence, visual injury rating about 10 d after treatment, 0 to 100 scale (0 no effect, 100 complete control), read-out: Ryegrass, Italian plant response rating), 60%; in assay [3] (preemergence, visual injury rating about 10 d after treatment, 0 to 100 scale (0 no effect, 100 complete control), read-out: Pigweed plant response rating) it was 30%; in assay [4] (preemergence, visual injury rating about 10 d after treatment, 0 to 100 scale (0 no effect, 100 complete control), read-out: Foxtail, Giant plant response rating), 100%; in [5] (preemergence, visual injury rating about 10 d after treatment, 0 to 100 scale (0 no effect, 100 complete control), read-out: Kochia plant response rating), 90%; in assay [6] (preemergence, visual injury rating about 10 d after treatment, 0 to 100 scale (0 no effect, 100 complete control), read-out: Barnyardgrass plant response rating) it was 100%. Moreover, in [8] (125 g ai/ha, Postemergence, visual injury after approximately 10 d, 0 to 100 scale where 0 is no effect and 100 is complete control), the Corn plant response rating (crop injury, 0 = no effect, 100 = complete kill) at 125 g/ha amounted to 30%. Also, the pest or weed control at 250 g/ha was 20% in assay [11] (setting [16]), 100% in assay [12] (setting [16]), 0% in assay [13] (setting [16]) and 60% in assay [14] (setting [16]).
